# Molecular target: PTEN (Homo sapiens, UniProt P60484)
# Test: absorbance […] nm, pNPP hydrolysis
# Format: biochemical
# Conditions: 100 mM pNPP; 25 °C; Tris-HCl pH 8.0
# Sequence of PTEN (P60484 2-403): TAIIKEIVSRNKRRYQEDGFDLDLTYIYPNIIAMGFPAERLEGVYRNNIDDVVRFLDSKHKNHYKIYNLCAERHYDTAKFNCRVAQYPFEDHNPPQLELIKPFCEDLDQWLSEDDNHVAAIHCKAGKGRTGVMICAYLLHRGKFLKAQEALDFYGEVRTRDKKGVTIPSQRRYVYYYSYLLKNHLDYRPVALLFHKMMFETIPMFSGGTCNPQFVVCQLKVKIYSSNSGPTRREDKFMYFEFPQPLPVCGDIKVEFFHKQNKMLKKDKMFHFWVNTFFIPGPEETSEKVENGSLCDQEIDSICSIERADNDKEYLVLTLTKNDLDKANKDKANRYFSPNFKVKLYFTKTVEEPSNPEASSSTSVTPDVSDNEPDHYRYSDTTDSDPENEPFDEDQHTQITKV
smiles,measurement,value
O=[N+]([O-])c1ccc(OP(=O)(O)O)cc1 [pNPP],"absorbance 405 nm, pNPP hydrolysis",in vitro activity and affinity for pNPP substrate are similar for both INPP4B and PTEN

# Reference: paper PMC4578723 (Biochemical and biophysical research communications, 2013)
